# Counter-ions that a name gives are not always drawn.
# Test system: hypotension induced by PAF
# Assay: Inhibition of the hypotensive effect induced by PAF in normotense rats
# Assay type: in vivo, Sprage Dawley rats
# Conditions: Rattus norvegicus, iv, read-out: ID50
# Experimental: Inhibition of the hypotensive effect induced by PAF in normotense rats.
# Male Sprage Dawley rats, of 180-220 g of weight, anesthetized with sodium pentobarbital (50 mg/Kg, i.p. 1 mU100 g) have been used. In order to measure the average arterial pressure, a polyethylene catheter is introduced into the carotid artery. The arterial pressure is recorded with the help of a transducer connected with a R611 Beckman polygraph. The tested compounds are administered through the femoral vein 3 min. before the injection of PAF (0.5 mcg/Kg, i.v.).
row,SMILES,ED50
1,"N#CC(c1cccnc1)N1CCN(C(=O)Cc2ccccc2)CC1 (stereo not shown) [Compound 5, 1-(Phenylacetyl)-4-(3-pyridylcyanomethyl)piperazine]",1.5 mg/kg
2,"N#CC(c1cccnc1)N1CCN(C(=O)Cc2cccc3ccccc23)CC1 (stereo not shown) [Compound 2, 1-(1-Naphthylacetyl)-4-(3-pyridylcyanomethyl)piperazine]",1.3 mg/kg
3,"Cl.Cl.Cl.N#CC(c1cccnc1)N1CCN(C(=O)Cc2c[nH]c3ccccc23)CC1 (stereo not shown) [Compound 33, 1-(3-indolylacetyl)-4-(3-pyridylcyanomethyl)piperazine, trihydrochloride]",3.5 mg/kg

# Same assay, conditions: Rattus norvegicus, iv; i.v. (femoral vein) 3 min before PAF 0.5 mcg/Kg i.v.; anesthetized male rats; mean arterial pressure; read-out: ID50 (the source's name)
row,SMILES,ED50
1,"Cl.Cl.N#CC(c1ccncc1)N1CCN(C(=O)CC(c2ccccc2)c2ccccc2)CC1 (stereo not shown) [Compound 67, 1-(3,3-diphenylpropanoyl)-4-(4-pyridylcyanomethyl)piperazine, dihydrochloride]",0.034 mg/kg
2,"COc1cc(C(=O)N2CCN(C(C#N)c3cccnc3)CC2)cc(OC)c1OC.Cl.Cl (stereo not shown) [Compound 22, 1-(3,4,5-Trimethoxybenzoyl)-4-(3-pyridylcyanomethyl)piperazine, dihydrochloride]",4.3 mg/kg
3,"Cl.Cl.Cl.N#CC(c1cccnc1)N1CCN(C(=O)CN(Cc2ccccc2)Cc2ccccc2)CC1 (stereo not shown) [Compound 49, 1-(N,N-dibenzylaminoacetyl)-4-(3-pyridylcyanomethyl)piperazine, trihydrochloride]",1.7 mg/kg
4,"N#CC(c1cccnc1)N1CCN(C(=O)C=C(c2ccccc2)c2ccccc2)CC1 (stereo not shown) [Compound 17, 1-(3,3-Diphenylpropenoyl)-4-(3-pyridylcyanomethyl)piperazine]",0.049 mg/kg
5,"Cl.Cl.N#CC(c1cccnc1)N1CCN(C(=O)C(O)c2ccccc2)CC1 (stereo not shown) [Compound 27, 1-(2-phenyl-2-hydroxyacetyl)-4-(3-pyridylcyanomethyl)piperazine, dihydrochloride]",1.1 mg/kg
6,"CC(C(=O)N1CCN(C(C#N)c2cccnc2)CC1)c1ccccc1.Cl.Cl (stereo not shown) [Compound 14, 1-(2-Phenylpropanoyl)-4-(3-pyridylcyanomethyl)piperazine, dihydrochloride]",0.26 mg/kg
7,"N#CC(c1ccncc1)N1CCN(C(=O)CCNC(c2ccccc2)c2ccccc2)CC1 (stereo not shown) [Compound 48, 1-(3-(N-(diphenylmethyl)amino)propanoyl)-4-(4-pyridylcyanomethyl)piperazine]",0.037 mg/kg
8,"N#CC(c1cccnc1)N1CCN(C(=O)C(=Cc2ccccc2)c2ccccc2)CC1 (stereo not shown) [Compound 16, 1-(2,3-Diphenylpropenoyl)-4(3-pyridylcyanomethyl)piperazine]",0.17 mg/kg
9,"CCCCCCCC(=O)N1CCN(C(C#N)c2cccnc2)CC1.Cl (stereo not shown) [Compound 19, 1-(Octanoyl)-4-(3-pyridylcyanomethyl)piperazine hydrochloride]",1.2 mg/kg
10,"Cl.Cl.N#CC(c1cccnc1)N1CCN(C(=O)C(c2ccccc2)c2ccccc2)CC1 (stereo not shown) [Compound 9, 1-(Diphenylacetyl)-4-(3-pyridylcyanomethyl)piperazine, dihydrochloride]",0.11 mg/kg
11,"N#CC(c1cccnc1)N1CCN(C(=O)CN(Cc2ccccc2)c2ccccc2)CC1 (stereo not shown) [Compound 38, 1-(N-benzyl-N-phenylaminoacetyl)-4-(3-pyridylcyanomethyl)piperazine]",0.42 mg/kg
12,"N#CC(c1cccnc1)N1CCN(C(=O)C=Cc2ccccc2)CC1 (stereo not shown) [Compound 15, 1-(3-Phenylpropenoyl)-4-(3-pyridylcyanomethyl)piperazine, dichlorhydrate]",0.24 mg/kg
13,"N#CC(c1ccncc1)N1CCN(C(=O)CC(O)(c2ccccc2)c2ccccc2)CC1 (stereo not shown) [Compound 29, 1-(3,3-Diphenyl-3-hydroxypropanoyl)-4-(4-pyridylcyanomethyl)piperazine]",0.061 mg/kg
14,"N#CC(c1cccnc1)N1CCN(C(=O)C(CCc2ccccc2)c2ccccc2)CC1 (stereo not shown) [Compound 11, 1-(2,4-Diphenylbutanoyl)-4-(3-pyridylcyanomethyl)piperazine]",0.73 mg/kg
15,"Cl.Cl.N#CC(c1cccnc1)N1CCN(C(=O)c2ccc3ccccc3c2)CC1 (stereo not shown) [Compound 1, 1-(2-Naphthoyl)-4-(3-pyridylcyanomethyl)piperazine, dihydrochloride]",5 mg/kg
16,"N#CC(c1cccnc1)N1CCN(C(=O)C(Cc2ccccc2)c2ccccc2)CC1 (stereo not shown) [Compound 10, 1-(2,3-Diphenylpropanoyl)-4-(3-pyridylcyanomethyl)piperazine]",0.12 mg/kg
17,"N#CC(c1cccnc1)N1CCN(C(=O)CCCc2ccccc2)CC1 (stereo not shown) [Compound 7, 1-(4-Phenylbutanoyl)-4-(3-pyridylcyanomethyl)piperazine]",5 mg/kg

row,SMILES,ED50
1,"COc1ccc(C(=CC(=O)N2CCN(C(C#N)c3cccnc3)CC2)c2ccc(OC)cc2)cc1.Cl.Cl (stereo not shown) [Compound 26, 1-(3,3-bis(4-methoxyphenyl)propenoyl)-4-(3-pyridylcyanomethyl)piperazine, dihydrochloride]",0.17 mg/kg
2,"Cl.Cl.N#CC(c1cccnc1)N1CCN(C(=O)OCC(c2ccccc2)c2ccccc2)CC1 (stereo not shown) [Compound 31, 1-((2,2-diphenylethoxy)carbonyl)-4-(3-pyridylcyanomethyl)piperazine, dihydrochloride]",0.078 mg/kg
3,"N#CC(c1cccnc1)N1CCN(C(=O)CNC(c2ccccc2)c2ccc(Cl)cc2)CC1 (stereo not shown) [Compound 46, 1-(N-(1-(4-chlorophenyl)-1-phenylmethyl)aminoacetyl)-4-(3-pyridylcyanomethyl) piperazine, trihydrochloride]",0.13 mg/kg
4,"CN(CC(=O)N1CCN(C(C#N)c2cccnc2)CC1)C(c1ccccc1)c1ccccc1 (stereo not shown) [Compound 45, 1-(N-diphenylmethyl-N-methylaminoacetyl)-4-(3-pyridylcyanomethyl) piperazine, trihydrochloride]",0.33 mg/kg
5,"N#CC(c1cccnc1)N1CCN(C(=O)C(Cc2ccccc2)Cc2ccccc2)CC1 (stereo not shown) [Compound 13, 1-(2-Phenylmethyl-3-phenylpropanoyl)-4-(3-pyridylcyanomethyl) piperazine, dichlorhydrate]",0.68 mg/kg
6,"CC(C(=O)N1CCN(C(C#N)c2cccnc2)CC1)(c1ccccc1)c1ccccc1.Cl.Cl (stereo not shown) [Compound 8, 1-(2,2-Diphenylpropanoyl)-4-(3-pyridylcyanomethyl)piperazine, dihydrochloride]",0.14 mg/kg
7,"Cl.Cl.Cl.N#CC(c1cccnc1)N1CCN(C(=O)CNC(Cc2ccccc2)c2ccccc2)CC1 (stereo not shown) [Compound 52, 1-(N-(1,2-diphenylethyl)aminoacetyl)-4-(3-pyridylcyanomethyl)piperazine, trihydrochloride]",0.34 mg/kg
8,"N#CC(c1cccnc1)N1CCN(CCNC(=O)C(c2ccccc2)c2ccccc2)CC1 (stereo not shown) [Compound 62, 1-(2-(N-(diphenylacetyl)amino)ethyl)-4-(3-pyridylcyanomethyl)piperazine]",0.29 mg/kg
9,"N#CC(c1cccnc1)N1CCN(C(=O)CCc2ccccc2)CC1 (stereo not shown) [Compound 6, 1-(3-Phenylpropanoyl)-4-(3-pyridylcyanomethyl)piperazine, dichlorhydrate]",1.2 mg/kg
10,"N#CC(c1cccnc1)N1CCN(C(=O)CN(CCCc2ccccc2)Cc2ccccc2)CC1 (stereo not shown) [Compound 41, 1-(N-benzyl-N-(3-phenylpropyl)aminoacetyl)-4-(3-pyridylcyanomethyl) piperazine, trihydrochloride]",1.5 mg/kg
11,"N#CC(c1cccnc1)N1CCN(C(=O)CC(c2ccccc2)c2ccccc2)CC1 (stereo not shown) [Compound 12, 1-(3,3-Diphenylpropanoyl)-4-(3-pyridylcyanomethyl)piperazine]",0.016 mg/kg
12,"N#CC(c1ccncc1)N1CCN(C(=O)CNC(=O)C(c2ccccc2)c2ccccc2)CC1 (stereo not shown) [Compound 57, 1-(N-(diphenylacetyl)aminoacetyl)-4-(4-pyridylcyanomethyl)piperazine]",0.47 mg/kg
13,"Cl.Cl.Cl.N#CC(c1cccnc1)N1CCN(C(=O)CNc2cccc3ccccc23)CC1 (stereo not shown) [Compound 34, 1-(N-(1-naphthyl)aminoacetyl)-4-(3-pyridylcyanomethyl)piperazine, trihydrochloride]",3 mg/kg
14,"COc1ccc(C(CC(=O)N2CCN(C(C#N)c3cccnc3)CC2)c2ccc(OC)cc2)cc1 (stereo not shown) [Compound 25, 1-(3,3-bis(4-methoxyphenyl)propanoyl)-4-(3-pyridylcyanomethyl) piperazine]",0.19 mg/kg
15,"N#CC(c1cccnc1)N1CCN(C(=O)CC(O)(c2ccccc2)c2ccccc2)CC1 (stereo not shown) [Compound 28, 1-(3,3-Diphenyl-3-hydroxypropanoyl)-4-(3-pyridylcyanomethyl)piperazine]",0.061 mg/kg
16,"N#CC(c1cccnc1)N1CCN(C(=O)CCNC(c2ccccc2)c2ccccc2)CC1 (stereo not shown) [Compound 47, 1-(3-(N-(diphenylmethyl)amino)propanoyl)-4-(3-pyridylcyanomethyl) piperazine]",0.025 mg/kg
17,"N#CC(c1cccnc1)N1CCN(C(=O)CNC(c2ccccc2)c2ccccc2)CC1 (stereo not shown) [Compound 44, 1-(N-(diphenylmethyl)aminoacetyl)-4-(3-pyridylcyanomethyl) piperazine, trihydrochloride]",0.023 mg/kg

# — patent EP0441226A1, “(cyanomethyl)pyridines useful as PAF antagonists” (J. URIACH & CIA. S.A., priority 1990, dated 1991)
